Source: patent US8785445B2 (Array BioPharma Inc., priority 2008, dated 2014)

Each compound was assayed against T1, human DP2 (Homo sapiens, UniProt Q9Y5Y4) (assay: DP-2 binding inhibition assay (3H-PGD2, membranes of DP2-expressing K562 cells)). Conditions: 4% HSA, read-out: EC50 (nM) 4% HSA.
T1 construct: expressed in transfected cells; membranes prepared
T1 sequence (Q9Y5Y4 1-395): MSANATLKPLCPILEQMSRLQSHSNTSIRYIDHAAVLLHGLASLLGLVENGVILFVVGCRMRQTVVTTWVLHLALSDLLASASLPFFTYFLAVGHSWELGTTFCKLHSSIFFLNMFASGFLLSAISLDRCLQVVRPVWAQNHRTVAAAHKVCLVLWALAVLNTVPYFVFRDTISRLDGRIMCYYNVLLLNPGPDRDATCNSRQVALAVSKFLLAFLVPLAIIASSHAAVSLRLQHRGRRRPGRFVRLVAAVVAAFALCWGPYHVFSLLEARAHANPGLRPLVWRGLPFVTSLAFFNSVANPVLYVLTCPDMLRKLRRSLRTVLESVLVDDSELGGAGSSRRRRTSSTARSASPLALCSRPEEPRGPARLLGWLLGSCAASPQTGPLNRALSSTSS
Method: The coding sequence of human DP2 was introduced into the human Leukemic cell line K562 by electroporation and stable clones expressing DP2 were obtained by limiting dilution followed by cell surface staining with a rat monoclonal antibody specific for human DP2. Membranes were prepared from one of these DP2 expressing clones and used to determine the ability of the compounds of the present invention to inhibit binding of prostaglandin D2 (PGD2) to its receptor DP2 in the presence of one or more of the following serum protein concentrations, 0.1% BSA, 1% HSA or 4% HSA, by the following procedure. […] After incubation for 60 minutes at room temperature, the assay was transferred to a filtration plate (#MAFB; Millipore Corporation, Bedford, Mass.), and washed three times with binding buffer. Radioactivity was measured by a scintillation counter (TopCount; PerkinElmer Life Sciences, Boston, Mass.). Nonspecific binding was determined by incubations in the presence of 1 μM unlabeled PGD2 or 5 μM of a known DP2 antagonist. IC50 values for inhibition of binding were determined for each compound tested from the inflexion point of a standard 4-parameter logistical curve fitted to the values obtained.
Compound `CSc1ccc(-c2ccc(NC(=O)c3ccc(Oc4cc5c(cc4Cl)C(C(=O)O)CCO5)cc3)nn2)cc1` (stereo not drawn) [Example 64, Sodium 6-chloro-7-(4-(6-(4-(methylthio)phenyl)pyridazin-3-ylcarbamoyl)phenoxy)chroman-4-carboxylate] has an EC50 of 344 nM.
`O=C(Nc1ccc(-c2ccc(Cl)c(Cl)c2)nn1)c1ccc(Oc2cc3c(cc2Cl)C(C(=O)O)CCO3)cc1` (stereo not drawn) [Example 65, Sodium 6-chloro-7-(4-(6-(3,4-dichlorophenyl)pyridazin-3-ylcarbamoyl)phenoxy)chroman-4-carboxylate] was tested, and the EC50 was 96.2 nM.
`O=C(Nc1ccc(-c2ccc(F)cc2)nn1)c1ccc(Oc2cc3c(cc2Cl)C(C(=O)O)CCO3)cc1` (stereo not drawn) [Example 66, Sodium 6-chloro-7-(4-(6-(4-fluorophenyl)pyridazin-3-ylcarbamoyl)phenoxy)chroman-4-carboxylate] was tested, and the EC50 was 306 nM.
In the case of `O=C(Nc1ccc(-c2ccc(Cl)c(F)c2)nn1)c1ccc(Oc2cc3c(cc2Cl)C(C(=O)O)CCO3)cc1` (stereo not drawn) [Example 67, Sodium 6-chloro-7-(4-(6-(4-chloro-3-fluorophenyl)pyridazin-3-ylcarbamoyl)phenoxy)chroman-4-carboxylate], the EC50 is reported as 203 nM.
`COc1ccc(-c2ccc(NC(=O)c3ccc(Oc4cc5c(cc4Cl)C(C(=O)O)CCO5)cc3)nn2)cn1` (stereo not drawn) [Example 68, Sodium 6-chloro-7-(4-(6-(6-methoxypyridin-3-yl)pyridazin-3-ylcarbamoyl)phenoxy)chroman-4-carboxylate] was tested, and the EC50 was 869 nM.
Compound `COc1ccc(-c2ccc(NC(=O)c3ccc(Oc4cc5c(cc4Cl)C(C(=O)O)CCO5)cc3)nn2)c(OC)n1` (stereo not drawn) [Example 69, Sodium 6-chloro-7-(4-(6-(2,6-dimethoxypyridin-3-yl)pyridazin-3-ylcarbamoyl)phenoxy)chroman-4-carboxylate] has an EC50 of 1780 nM.
`O=C(Nc1ccc(-c2ccc(C(F)(F)F)cc2F)nn1)c1ccc(Oc2cc3c(cc2Cl)C(C(=O)O)CCO3)cc1` (stereo not drawn) [Example 70, Sodium 6-chloro-7-(4-(6-(2-fluoro-4-(trifluoromethyl)phenyl)pyridazin-3-ylcarbamoyl)phenoxy)chroman-4-carboxylate] showed an EC50 of 437 nM.
For `O=C(Nc1ccc(-c2ccc(F)cc2F)nn1)c1ccc(Oc2cc3c(cc2Cl)C(C(=O)O)CCO3)cc1` (stereo not drawn) [Example 71, Sodium 6-chloro-7-(4-(6-(2,4-difluorophenyl)pyridazin-3-ylcarbamoyl)phenoxy)chroman-4-carboxylate], the EC50 was 1510 nM.
In the case of `O=C(Nc1ccc(-c2ccc(Cl)cc2F)nn1)c1ccc(Oc2cc3c(cc2Cl)C(C(=O)O)CCO3)cc1` (stereo not drawn) [Example 72, Sodium 6-chloro-7-(4-(6-(4-chloro-2-fluorophenyl)pyridazin-3-ylcarbamoyl)phenoxy)chroman-4-carboxylate], the EC50 is reported as 1110 nM.
`COc1ccc(-c2ccc(NC(=O)c3ccc(Oc4cc5c(cc4Cl)C(C(=O)O)CCO5)cc3)nc2)cn1` (stereo not drawn) [Example 73, Sodium 6-chloro-7-(4-(6′-methoxy-3,3′-bipyridin-6-ylcarbamoyl)phenoxy)chroman-4-carboxylate] was tested, and the EC50 was 959 nM.
In the case of `COc1ccc(-c2ccc(NC(=O)c3ccc(Oc4cc5c(cc4Cl)C(C(=O)O)CCO5)cc3)nc2)c(OC)n1` (stereo not drawn) [Example 74, Sodium 6-chloro-7-(4-(2′,6′-dimethoxy-3,3′-bipyridin-6-ylcarbamoyl)phenoxy)chroman-4-carboxylate], the EC50 is reported as 794 nM.
For `O=C(Nc1ccc(-c2cccc(C(F)(F)F)c2)nc1)c1ccc(Oc2cc3c(cc2Cl)C(C(=O)O)CCO3)cc1` (stereo not drawn) [Example 75, 6-Chloro-7-(4-(6-(3-(trifluoromethyl)phenyl)pyridin-3-ylcarbamoyl)phenoxy)chroman-4-carboxylic acid], the EC50 was 149 nM.
For `O=C(Nc1ccc(-c2ccc(C(F)(F)F)cc2)nc1)c1ccc(Oc2cc3c(cc2Cl)C(C(=O)O)CCO3)cc1` (stereo not drawn) [Example 76, Sodium 6-chloro-7-(4-(6-(4-(trifluoromethyl)phenyl)pyridin-3-ylcarbamoyl)phenoxy)chroman-4-carboxylate], the EC50 was 101 nM.
For `CCOc1cccc(NC(=O)c2ccc(Oc3cc4c(cc3Cl)C(C(=O)O)CCO4)cc2)n1` (stereo not drawn) [Example 78, 6-Chloro-7-(4-(6-ethoxypyridin-2-ylcarbamoyl)phenoxy)chroman-4-carboxylic acid], the EC50 was 740 nM.
With `O=C(Nc1cncc(-c2ccc(Cl)cc2)n1)c1ccc(Oc2cc3c(cc2Cl)C(C(=O)O)CCO3)cc1` (stereo not drawn) [Example 79, 6-chloro-7-(4-(6-(4-chlorophenyl)pyrazin-2-ylcarbamoyl)phenoxy)chroman-4-carboxylic acid] the EC50 was 105 nM.
Work on `COc1nc(C(F)(F)F)ccc1CCNC(=O)c1ccc(Oc2cc3c(cc2Cl)C(C(=O)O)CCO3)cc1` (stereo not drawn) [Example 80, Sodium 6-chloro-7-(4-(2-(2-methoxy-6-(trifluoromethyl)pyridin-3-yl)ethylcarbamoyl)phenoxy)chroman-4-carboxylate] yielded an EC50 of 25.1 nM.
For `O=C(Nc1cccc(-c2ccc(F)c(F)c2)n1)c1ccc(Oc2cc3c(cc2Cl)C(C(=O)O)CCO3)cc1` (stereo not drawn) [Example 81, 6-Chloro-7-(4-(6-(3,4-difluorophenyl)pyridin-2-ylcarbamoyl)phenoxy)chroman-4-carboxylic acid], the EC50 was 97.9 nM.
In the case of `O=C(Nc1cccc(-c2ccc(F)cc2F)n1)c1ccc(Oc2cc3c(cc2Cl)C(C(=O)O)CCO3)cc1` (stereo not drawn) [Example 82, 6-Chloro-7-(4-(6-(2,4-difluorophenyl)pyridin-2-ylcarbamoyl)phenoxy)chroman-4-carboxylic acid], the EC50 is reported as 120 nM.
`CSc1ccc(-c2cccc(NC(=O)c3ccc(Oc4cc5c(cc4Cl)C(C(=O)O)CCO5)cc3)n2)cc1` (stereo not drawn) [Example 83, 6-Chloro-7-(4-(6-(4-(methylthio)phenyl)pyridin-2-ylcarbamoyl)phenoxy)chroman-4-carboxylic acid] was tested, and the EC50 was 71.3 nM.
With `Cc1cc(-c2cccc(NC(=O)c3ccc(Oc4cc5c(cc4Cl)C(C(=O)O)CCO5)cc3)n2)ccc1F` (stereo not drawn) [Example 84, 6-Chloro-7-(4-(6-(4-fluoro-3-methylphenyl)pyridin-2-ylcarbamoyl)phenoxy)chroman-4-carboxylic acid] the EC50 was 144 nM.
`CC(C)(C)c1ccc(-c2cccc(NC(=O)c3ccc(Oc4cc5c(cc4Cl)C(C(=O)O)CCO5)cc3)n2)cc1` (stereo not drawn) [Example 85, 7-(4-(6-(4-tert-Butylphenyl)pyridin-2-ylcarbamoyl)phenoxy)-6-chlorochroman-4-carboxylic acid] showed an EC50 of 22.5 nM.
With `O=C(Nc1cccc(-c2ccc(Cl)c(F)c2)n1)c1ccc(Oc2cc3c(cc2Cl)C(C(=O)O)CCO3)cc1` (stereo not drawn) [Example 86, 6-Chloro-7-(4-(6-(4-chloro-3-fluorophenyl)pyridin-2-ylcarbamoyl)phenoxy)chroman-4-carboxylic acid] the EC50 was 49.5 nM.
In the case of `O=C(Nc1cccc(-c2ccc(Cl)cc2F)n1)c1ccc(Oc2cc3c(cc2Cl)C(C(=O)O)CCO3)cc1` (stereo not drawn) [Example 87, 6-chloro-7-(4-(6-(4-chloro-2-fluorophenyl)pyridin-2-ylcarbamoyl)phenoxy)chroman-4-carboxylic acid], the EC50 is reported as 41.4 nM.
Compound `Cc1ccc(-c2cccc(NC(=O)c3ccc(Oc4cc5c(cc4Cl)C(C(=O)O)CCO5)cc3)n2)cc1F` (stereo not drawn) [Example 88, 6-Chloro-7-(4-(6-(3-fluoro-4-methylphenyl)pyridin-2-ylcarbamoyl)phenoxy)chroman-4-carboxylic acid] has an EC50 of 55.5 nM.
`O=C(Nc1cccc(-c2cc(F)cc(F)c2)n1)c1ccc(Oc2cc3c(cc2Cl)C(C(=O)O)CCO3)cc1` (stereo not drawn) [Example 89, 6-chloro-7-(4-(6-(3,5-difluorophenyl)pyridin-2-ylcarbamoyl)phenoxy)chroman-4-carboxylic acid] was tested, and the EC50 was 251 nM.
`O=C(Nc1cccc(-c2cccc(F)c2F)n1)c1ccc(Oc2cc3c(cc2Cl)C(C(=O)O)CCO3)cc1` (stereo not drawn) [Example 90, 6-chloro-7-(4-(6-(2,3-difluorophenyl)pyridin-2-ylcarbamoyl)phenoxy)chroman-4-carboxylic acid] was tested, and the EC50 was 166 nM.
Compound `CC(C)(C)Sc1cccc(NC(=O)c2ccc(Oc3cc4c(cc3Cl)C(C(=O)O)CCO4)cc2)n1` (stereo not drawn) [Example 91, 7-(4-(6-(tert-Butylthio)pyridin-2-ylcarbamoyl)phenoxy)-6-chlorochroman-4-carboxylic acid] has an EC50 of 897 nM.
With `O=C(Nc1cncc(-c2cccc(Cl)c2)n1)c1ccc(Oc2cc3c(cc2Cl)C(C(=O)O)CCO3)cc1` (stereo not drawn) [Example 92, 6-Chloro-7-(4-(6-(3-chlorophenyl)pyrazin-2-ylcarbamoyl)phenoxy)chroman-4-carboxylic acid] the EC50 was 415 nM.
In the case of `O=C(Nc1cncc(-c2ccc(C(F)(F)F)cc2)n1)c1ccc(Oc2cc3c(cc2Cl)C(C(=O)O)CCO3)cc1` (stereo not drawn) [Example 93, 6-Chloro-7-(4-(6-(4-(trifluoromethyl)phenyl)pyrazin-2-ylcarbamoyl)phenoxy)chroman-4-carboxylic acid], the EC50 is reported as 80.5 nM.
`O=C(Nc1cncc(-c2cccc(C(F)(F)F)c2)n1)c1ccc(Oc2cc3c(cc2Cl)C(C(=O)O)CCO3)cc1` (stereo not drawn) [Example 94, 6-chloro-7-(4-(6-(3-(trifluoromethyl)phenyl)pyrazin-2-ylcarbamoyl)phenoxy)chroman-4-carboxylic acid] showed an EC50 of 208 nM.
